Laboratory results taken from ChEMBL document CHEMBL5209575, “Membrane potential based assay for SLC1A1 using HEK-293 SLC1A1 OE cells” (2022).

Target: T1, Excitatory amino acid transporter 3 (Homo sapiens, UniProt P43005)
T1 sequence (P43005 whole entry): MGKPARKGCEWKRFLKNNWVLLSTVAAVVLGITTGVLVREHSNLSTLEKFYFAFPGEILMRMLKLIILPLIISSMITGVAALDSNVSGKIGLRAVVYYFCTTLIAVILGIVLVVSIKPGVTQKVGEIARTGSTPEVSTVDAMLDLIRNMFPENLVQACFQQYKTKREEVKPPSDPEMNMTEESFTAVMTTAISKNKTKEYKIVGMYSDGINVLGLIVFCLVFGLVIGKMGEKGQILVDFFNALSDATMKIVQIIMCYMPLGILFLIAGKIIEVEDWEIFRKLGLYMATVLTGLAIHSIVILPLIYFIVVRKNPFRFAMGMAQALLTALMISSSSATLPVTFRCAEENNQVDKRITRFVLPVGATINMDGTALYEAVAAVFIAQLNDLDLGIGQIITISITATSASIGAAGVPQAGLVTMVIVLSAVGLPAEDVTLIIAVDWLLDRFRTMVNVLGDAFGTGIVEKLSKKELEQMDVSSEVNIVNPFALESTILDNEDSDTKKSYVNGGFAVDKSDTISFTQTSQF
Experiment: Substrate uptake by the Excitatory Amino Acid Transporter 3 (EAAT3, SLC1A1) as assessed by the fluorescent FLIPR membrane potential dye in HEK-293 JumpIN-SLC1A1 cells (PubChem AID: 1794812)
Assay type: functional, cell-based, HEK293

SMILES	EC50 (read-out: EC50)	EC50 (hek293)
N[C@@H](CS)C(=O)O [CYSTEINE]	161 µM	
N[C@@H](CCC(=O)O)C(=O)O [GLUTAMIC ACID]		Substrate: The Commpound Is Eliciting A Specific Response, But A Broader Concentration Range Is Needed To Calculate A Correct Ec50
N[C@@H](CC(=O)O)C(=O)O [ASPARTIC ACID]		Substrate: The Commpound Is Eliciting A Specific Response, But A Broader Concentration Range Is Needed To Calculate A Correct Ec50
